The source of these data is US20240277739A1, “NUTRITONAL COMPOSITIONS FOR GUT BARRIER FUNCTION” (N.V. Nutricia, priority 2021, published 2024).

In test [1] the test system is Caco-2 cell monolayer. The test can be described thus: TEER of Caco-2 monolayer, DON-induced impairment of barrier integrity. The class given is cell-based, human. As to conditions: for effect on DON-induced loss of epithelial barrier integrity, TEER (FIGS. 1A, 1B), in words: 0.75 wt. % GL, 24 h pretreatment, then DON 4.2 μM 24 h. The method, then: (§1) beta1,3′-galactosyl-lactose (beta3′-GL), beta1,4′-galactosyllactose (beta4′-GL) and beta1,6′-galactosyl-lactose (beta6′-GL) were obtained from Carbosynth (Berkshire, UK), alpha1,3′-galactosyl-lactose (alpha3′-GL) was obtained from Elicityl (Crolles, France). Purified deoxydivalenol (DON) (D0156; Sigma Aldrich, St Luis, MO, USA) was dissolved in pure ethanol and stored at −20° C. Human epithelial colorectal adenocarcinoma (Caco-2) cells were obtained from American Type Tissue Collection (Code HTB-37) (Manasse, VA, USA, passage 90-102).
(§2) Caco-2 cells were used according to established methods. In brief: cells were cultured in Dulbecco's modified Eagle medium (DMEM) and seeded at a density of 0.3×10^5 cells into 0.3 cm^2 high pore density (0.4 μm) inserts with a polyethylene terephthalate membrane (BD Biosciences, Franklin Lakes, NJ, USA) placed in a 24-well plate. The Caco-2 cells were maintained in a humidified atmosphere of 95% air and 5% CO2 at 37° C. After 17-19 days of culturing, a confluent monolayer was obtained with a mean Transepithelial electrical resistance (TEER) exceeding 400 Ω cm^2 measured by a Millicell-Electrical Resistance System voltohm-meter (Millipore, Temecula, CA, USA).
(§3) Caco-2 cell monolayers were thus grown in a transwell system, which is a model for intestinal barrier function. The monolayers were pretreated for 24 h with different GLs, including beta3′-GL, alpha3′-GL, beta4′-GL and beta6′-GL in a concentration of 0.75 wt. % of the GL, before being exposed to the fungal toxin deoxynivalenol (DON), which is a trigger and model compound to impair intestinal barrier. DON was diluted to a final concentration of 4.2 μM in complete cell medium and added to the apical side as well as to the basolateral side of the transwell inserts. […] Incubation with DON was 24 h.
(§4) Measurements of the transepithelial electrical resistance (TEER) and lucifer yellow (LY) permeability were conducted to investigate barrier integrity. For TEER measurements a Millicel-ERS voltohmmeter connected to a pair of chopsticks electrodes was used to measure the TEER values. Results are expressed as a percentage of the initial value. For paracellular tracer flux assay the membrane impermeable lucifer yellow (LY) (Sigma, St Luis, MO, USA) was added in a concentration of 16 μg/ml to the apical compartment in the transwell plate for 4 h, and the paracellular flux was determined by measuring the fluorescence intensity in the basolateral compartment with a spectrophotofluorimeter (FLUOstar Optima, BMG Labtech, Offenburg, Germany) set at excitation and emission wavelengths of 410 and 520 nm, respectively. Release of interleukin-8 (IL-8 or CXCL8), which is a typical marker for inflammation, was quantified in the medium of the apical side and the basolateral side of the Caco-2 transwell inserts in response to the treatments. CXCL8 concentrations were measured by using the human IL-8 ELISA assay (BD Biosciences, Pharmingem, San Diego, CA, USA) according to manufacturer's instructions. For more details on materials and methods see Akbari et al, 2016, Eur J Nutr. 56(5):1919-1930.
(§5) For TOS concentrations of 0.25 wt. % (TOS 0.25) and 0.5 wt. % (TOS 0.5) were tested.
(§6) Barrier function experiments were performed using the method as described in example 3. Oleic acid (OA) and palmitic acid were obtained from Sigma-Aldrich. Palmitic acid was coupled to fatty acid free Bovine Serum Albumin (BSA, Roche) to make a 6:1 BSA-palmitic acid conjugate solution, which is needed to dissolve palmitic acid in culture medium and therefore common practice in the field (reference Alsabeeh et al, Biochim. Biophys Acta. 2018 February; 1863(2): 143-151). Throughout this document this conjugate solution will be abbreviated as PA.

The test system of test [2] is Caco-2 cell monolayer. The test can be described thus: Lucifer yellow (LY) paracellular flux across Caco-2 monolayer, DON-induced impairment. The class given is cell-based, human. As to conditions: for effect on DON-induced loss of epithelial barrier integrity, LY flux (FIGS. 1C, 1D), in words: 0.75 wt. % GL, 24 h pretreatment, then DON 4.2 μM 24 h. The method, then: as §1, §2, §3, §4, §5
Barrier function experiments were performed using the method as described in example 3. Oleic acid (OA) and palmitic acid were obtained from Sigma-Aldrich. […]

Test [3] has as its system infant microbiota (pooled fecal samples from 3 healthy infants). The test can be described thus: Fermentation of galactosyllactoses by infant fecal microbiota (i-Screen anaerobic colon model). Further details: species or system human; acetate / lactate: unit not given here. The following applies: t = 24 h. The method, then:
The effect of pure 3′-GL, 4′-GL, and 6′-GL of the three galactosyllactoses functionality (pH, lactate, acetate levels) was evaluated. Beta1,3-galactosyllactose (beat3′-GL), beta1,4-galactosyllactose (beta4′-GL) and beta1,6-galactosyllactose (beta6′-GL) were obtained from Carbosynth (Berkshire, UK) Measurements of all parameters were performed after a 24-hour incubation in the high-throughput anaerobic colon model, i-Screen™ (TNO, Zeist, the Netherlands).
Fecal samples from 3 healthy infants (aged 1-4 months) were pooled and activated for 4 hours in a modified standard ileal efflux medium (pH 6.0) at 37° C. under anaerobic conditions. Next, each GL was added. After an incubation for 24 hours at 37° C. under anaerobic conditions, samples were collected for further analysis and pH levels were immediately measured using a pH meter MultiCal pH 526 (WTW, Weilheim, Germany). The samples were centrifuged at 4,000 g for 5 minutes and the supernatant was filter sterilized using 0.45 μm filters. For the SCFA analysis, a mixture of formic acid ([…]), methanol and 2-ethyl butyric acid (internal standard, 2 mg/ml in methanol) was added to the filtered supernatant. A 3 μl sample with a split ratio of 75.0 was injected on a GC-column (ZB-5HT inferno, ID 0.52 mm, film thickness 0.10 μm; Zebron; phenomenex, USA) in a Shimadzu GC-2014 gas chromatograph. The levels of acetic acid and lactic acid were measured. For lactate analysis, the total of D- and L-lactate was determined the filtered supernatant by the Arena 20XL analyser. This assay is based on the D- and L-lactic acid assay kits (Thermo Fisher Scientific oy, www.e-labeling.eu/TSF9843061FU and www.e-labeling.eu/TSF9843081FU). The assay was performed following the manufacturer's instructions with one adaptation: the reagents DLac RI and LLac RI from the two kits were mixed in a 1:1 ratio to detect both L and D isomers of lactic acid simultaneously. Calibration of the assay was done with an ‘Acid combination standard’ (order number 984382) containing both L-lactic acid and D-lactic acid.

In test [4] the test system is T84 human intestinal epithelial cells. The test can be described thus: TEER of T84 monolayers pre-incubated with fatty acids, SCFA mix or combination. As to conditions: for % TEER (24 h): relative to medium control at 24 h. In kind it is cell-based. From the text:
The effect of palmitic acid and oleic acid combined with a mixture of short chain fatty acids (SCFA mix) having a concentration profile that is typical for fermentation of a mixture of galacto-oligosaccharides (GOS) derived from VivinalGOS and long chain fructo-oligosaccharides (RaftilineHP) in a ratio of 9/1 (w/w) on barrier permeability was investigated. The concentration profiles of SCFA is as disclosed in Example 3 of EP2100520 (incorporated by reference herein), specifically as shown in FIG. 3A of EP2100520 (incorporated by reference herein) (see second bar in FIG. 3A), i.e. about 75% being acetic acid. Oleic acid and palmitic acid were obtained from Sigma-Aldrich and coupled to fatty acid free Bovine Serum Albumin (BSA, Sigma-Aldrich) prior to cell treatment.
T84 human intestinal epithelial cells are commonly used to study intestinal barrier integrity in vitro. T84 cells (ATCC, USA) were cultured on 12 mm transwell inserts (0.4 μm, Corning Costrar, USA) in DMEM-F12 glutamax with penicillin-streptomycin (100 IU/ml), supplemented with […]. T84 cells were used 14 days after reaching confluence. Monolayers of T84 cultured on transwell filters were pre-incubated with fatty acids, SCFA mix or a combination thereof for a period of 24 hours.
Epithelial barrier integrity was assessed by measuring transepithelial resistance (TEER; Ω×cm^2) with the epithelial volt-ohm meter (Millicell ERS-2; Millipore USA). TEER measurements were performed at 0, 24, h of incubation. TEER values of the fatty acids (i.e. SCFA, OA, PA) are expressed relative to the medium control TEER values at 24 h.

For test [5], the system named is Caco-2 cell monolayer. Description: TEER of Caco-2 monolayer with OA, PA, beta3′-GL and combinations (no DON). The class given is cell-based, human. The method, then: as §2, §4, §6
Tables 5a and 5b show the effects of OA and PA and beta3′-GL and its combinations on the intestinal barrier function as measured by TEER.

`OC[C@H]1O[C@@H](O[C@@H]2[C@H](O)[C@@H](O)[C@H](O[C@H]3[C@H](O)[C@@H](O)C(O)O[C@@H]3CO)O[C@@H]2CO)[C@H](O)[C@@H](O)[C@H]1O` (stereo partly drawn) [beta4′-GL, Gal (beta 1-4)-Gal (beta 1-4)-Glc]: the “effect on DON-induced loss of epithelial barrier integrity, TEER (FIGS. 1A, 1B), in words” value in test [1] is “did not show a significant effect”. Besides, the “effect on DON-induced loss of epithelial barrier integrity, LY flux (FIGS. 1C, 1D), in words” value in test [2] is on record as “did not show a significant effect”. For the same compound, in test [3] (3 mg/ml), the acetate stood at 52.2 and the lactate stood at 0.0. In addition, in test [3] (9 mg/ml), the acetate came out at 65.4 and the lactate is recorded as 3.6.

In the case of `OC[C@H]1O[C@@H](OC[C@H]2O[C@@H](O[C@H]3[C@H](O)[C@@H](O)C(O)O[C@@H]3CO)[C@H](O)[C@@H](O)[C@H]2O)[C@H](O)[C@@H](O)[C@H]1O` (stereo partly drawn) [beta6′-GL, Gal (beta 1-6) Gal (beta 1-4)-Glc], the “effect on DON-induced loss of epithelial barrier integrity, TEER (FIGS. 1A, 1B), in words” value in test [1] is “did not show a significant effect”. Further, the “effect on DON-induced loss of epithelial barrier integrity, LY flux (FIGS. 1C, 1D), in words” value in test [2] is listed as “did not show a significant effect”. In test [3] (3 mg/ml), the acetate is on record as 51.9 and the lactate was found to be 0.0. Moreover, in test [3] (9 mg/ml), the acetate turned out to be 74.3 and the lactate is reported as 2.7.

In the case of `OC[C@H]1O[C@H](O[C@H]2[C@@H](O)[C@@H](CO)O[C@@H](O[C@H]3[C@H](O)[C@@H](O)C(O)O[C@@H]3CO)[C@@H]2O)[C@H](O)[C@@H](O)[C@H]1O` (stereo partly drawn) [alpha3′-GL, Gal (alpha 1-3)-Gal (beta 1-4)-Glc], in test [1], the “effect on DON-induced loss of epithelial barrier integrity, TEER (FIGS. 1A, 1B), in words” value is “did not prevent the DON-induced disrupted intestinal barrier”. In test [2], the “effect on DON-induced loss of epithelial barrier integrity, LY flux (FIGS. 1C, 1D), in words” value is listed as “did not prevent the DON-induced disrupted intestinal barrier”.

As to `CCCCCCCCCCCCCCCC(=O)O` [PA, palmitic acid], the “TEER in the presence of DON (FIG. 3), single ingredient, in words” value in test [1] (DON 4.2 μM, 0.75 wt % beta3′-GL or 600 μM fatty acid alone) was “did not improve the TEER in the presence of DON”. Also, the “gut barrier function by LYF assay, fatty acid alone, in words” value in test [2] (DON model, data not shown) was “A similar effect was observed”. Besides, the “% TEER (24 h)” value in test [4] (fatty acid 50 μM + SCFA mix 40 mM) amounted to 143%; in test [4] (fatty acid 50 μM, SCFA mix 0 mM), 94%; in test [5] (Table 5b: palmitic acid 600 μM, 3′GL 0), 69%. Besides, the “increase of gut barrier function (TEER) versus control” value in test [4] (fatty acid 50 μM in combination with SCFA 40 mM, 24 h) is given as 43%. Further, in test [4] (fatty acid 50 μM plus SCFA 40 mM, additive), the “increase of gut barrier function expected for an additive effect” value was 54%. Besides, the “change of gut barrier function (TEER) versus control” value in test [4] (single ingredient: fatty acid 50 μM or SCFA mix 40 mM, 24 h) is reported as −6%. The “effect on TEER at 100 μM fatty acid, in words” value in test [5] (100 μM fatty acid, data not shown) was “This effect on TEER was also observed”.
